The text below walks through data of ChEMBL document CHEMBL1201862, “PubChem BioAssay data set” (2004).

The target in assay [1] is FAD-linked sulfhydryl oxidase ALR (Homo sapiens, UniProt P55789). As to the kind of experiment: inhibitors of human ALR sulfhydryl oxidase, dose response, biochemical, H2O2 detection, luminescence, cherry-pick (AID 493248).
In assay [2] the target is Dual specificity protein kinase CLK1 (Homo sapiens, UniProt P49759). Briefly: CLK1 kinase inhibitors, off-target check, dose response, selectivity assay for Dyrk1A inhibitor project, biochemical, cherry-picked samples (AID 588811).
Dual specificity protein kinase CLK1, sequence (P49759 whole entry): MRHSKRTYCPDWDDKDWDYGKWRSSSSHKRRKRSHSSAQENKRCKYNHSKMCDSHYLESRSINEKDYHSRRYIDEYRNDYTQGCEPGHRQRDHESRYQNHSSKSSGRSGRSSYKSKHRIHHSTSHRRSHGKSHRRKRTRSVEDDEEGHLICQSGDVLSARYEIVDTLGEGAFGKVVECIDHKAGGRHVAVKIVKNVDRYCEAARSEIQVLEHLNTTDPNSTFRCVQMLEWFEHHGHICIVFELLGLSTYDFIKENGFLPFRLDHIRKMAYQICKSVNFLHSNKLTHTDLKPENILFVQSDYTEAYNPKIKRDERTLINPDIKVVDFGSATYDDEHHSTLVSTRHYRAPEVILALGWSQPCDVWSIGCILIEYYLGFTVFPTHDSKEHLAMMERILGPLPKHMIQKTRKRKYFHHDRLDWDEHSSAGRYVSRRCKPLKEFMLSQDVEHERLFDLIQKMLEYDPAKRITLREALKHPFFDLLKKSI
The subject of another assay is H4. As to the kind of experiment: Luminescence Cell-Based Dose Response HTS to Identify Activators of 5'UTR Stem-Loop Driven Prion Protein mRNA Translation in H4 Neuroglioblastoma Cells. [Related pubchem assays: 1829 (Project Summary), 1814 (Primary HTS)]. The format is functional. Particulars: Homo sapiens.
The nature of assay [3]: Luminescence Cell-Based Dose Confirmation HTS to Identify Activators of 5'UTR Stem-Loop Driven Alpha-Synuclein mRNA Translation in H4 Neuroglioblastoma Cells. [Related pubchem assays: 1829 (Project Summary), 1814 (Primary HTS)]. It is filed as functional.
The target in assay [4] is Dual specificity tyrosine-phosphorylation-regulated kinase 1A (Rattus norvegicus, UniProt Q63470). It is filed as biochemical, Homo sapiens.
A short description of assay [5]: Luminescence Cell-Based Dose Response HTS to Identify Activators of Luciferase Translation or Activity in H4 […] Cells. [Related pubchem assays: 1829 (Project Summary), 1814 (Primary HTS)]. The format is functional.
Assay [6] deals with T1, Sentrin-specific protease 8 (Homo sapiens, UniProt Q96LD8).
T1 sequence (Q96LD8 whole entry): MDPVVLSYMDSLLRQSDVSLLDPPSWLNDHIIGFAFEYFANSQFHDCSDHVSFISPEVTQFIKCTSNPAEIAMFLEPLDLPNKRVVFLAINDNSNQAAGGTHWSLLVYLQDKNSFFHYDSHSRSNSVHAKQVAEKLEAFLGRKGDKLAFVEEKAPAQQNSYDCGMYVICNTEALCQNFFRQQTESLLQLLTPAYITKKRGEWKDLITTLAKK
It is filed as functional.

Assay [7] has as its target T2, Sentrin-specific protease 6 (Homo sapiens, UniProt Q9GZR1).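 Also: Luminescence-based dose-response confirmatory assay of SENP6 inhibition, following up an ultra-high-throughput screen.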
T2 sequence (Q9GZR1 whole entry): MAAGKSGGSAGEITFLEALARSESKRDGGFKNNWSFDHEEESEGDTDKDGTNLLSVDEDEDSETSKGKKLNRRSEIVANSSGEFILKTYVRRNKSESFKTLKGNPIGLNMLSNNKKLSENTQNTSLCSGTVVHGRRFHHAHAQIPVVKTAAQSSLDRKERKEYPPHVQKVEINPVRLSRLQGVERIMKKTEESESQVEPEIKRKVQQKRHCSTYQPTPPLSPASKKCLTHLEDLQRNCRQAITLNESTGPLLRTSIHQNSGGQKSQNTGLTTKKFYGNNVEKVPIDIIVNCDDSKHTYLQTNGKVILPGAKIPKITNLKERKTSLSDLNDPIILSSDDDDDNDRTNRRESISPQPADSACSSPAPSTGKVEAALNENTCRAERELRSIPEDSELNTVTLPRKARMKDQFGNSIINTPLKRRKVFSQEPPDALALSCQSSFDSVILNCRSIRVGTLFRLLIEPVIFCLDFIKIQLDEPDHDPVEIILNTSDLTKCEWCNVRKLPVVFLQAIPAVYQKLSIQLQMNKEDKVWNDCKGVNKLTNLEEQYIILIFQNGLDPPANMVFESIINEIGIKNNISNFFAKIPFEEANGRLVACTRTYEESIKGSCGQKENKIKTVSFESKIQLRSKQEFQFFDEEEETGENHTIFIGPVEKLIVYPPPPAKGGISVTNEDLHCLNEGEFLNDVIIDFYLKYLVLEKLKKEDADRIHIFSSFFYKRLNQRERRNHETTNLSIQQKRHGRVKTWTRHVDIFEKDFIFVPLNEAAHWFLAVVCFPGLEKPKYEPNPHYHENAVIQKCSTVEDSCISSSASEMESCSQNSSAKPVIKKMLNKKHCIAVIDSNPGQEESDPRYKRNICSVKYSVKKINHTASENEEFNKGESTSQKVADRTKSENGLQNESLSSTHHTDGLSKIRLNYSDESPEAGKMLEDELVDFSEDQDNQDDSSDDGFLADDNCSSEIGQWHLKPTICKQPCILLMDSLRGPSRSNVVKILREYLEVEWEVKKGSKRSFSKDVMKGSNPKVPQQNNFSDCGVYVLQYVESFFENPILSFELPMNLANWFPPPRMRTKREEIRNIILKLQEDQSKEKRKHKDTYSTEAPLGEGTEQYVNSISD
It is filed as functional.

Assay [8] concerns the target T3, Sentrin-specific protease 7 (Homo sapiens, UniProt Q9BQF6).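 Also: Luminescence-based dose-response confirmation of ultra-high-throughput screening hits, measuring inhibition of SENP7.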
T3 sequence (Q9BQF6 whole entry): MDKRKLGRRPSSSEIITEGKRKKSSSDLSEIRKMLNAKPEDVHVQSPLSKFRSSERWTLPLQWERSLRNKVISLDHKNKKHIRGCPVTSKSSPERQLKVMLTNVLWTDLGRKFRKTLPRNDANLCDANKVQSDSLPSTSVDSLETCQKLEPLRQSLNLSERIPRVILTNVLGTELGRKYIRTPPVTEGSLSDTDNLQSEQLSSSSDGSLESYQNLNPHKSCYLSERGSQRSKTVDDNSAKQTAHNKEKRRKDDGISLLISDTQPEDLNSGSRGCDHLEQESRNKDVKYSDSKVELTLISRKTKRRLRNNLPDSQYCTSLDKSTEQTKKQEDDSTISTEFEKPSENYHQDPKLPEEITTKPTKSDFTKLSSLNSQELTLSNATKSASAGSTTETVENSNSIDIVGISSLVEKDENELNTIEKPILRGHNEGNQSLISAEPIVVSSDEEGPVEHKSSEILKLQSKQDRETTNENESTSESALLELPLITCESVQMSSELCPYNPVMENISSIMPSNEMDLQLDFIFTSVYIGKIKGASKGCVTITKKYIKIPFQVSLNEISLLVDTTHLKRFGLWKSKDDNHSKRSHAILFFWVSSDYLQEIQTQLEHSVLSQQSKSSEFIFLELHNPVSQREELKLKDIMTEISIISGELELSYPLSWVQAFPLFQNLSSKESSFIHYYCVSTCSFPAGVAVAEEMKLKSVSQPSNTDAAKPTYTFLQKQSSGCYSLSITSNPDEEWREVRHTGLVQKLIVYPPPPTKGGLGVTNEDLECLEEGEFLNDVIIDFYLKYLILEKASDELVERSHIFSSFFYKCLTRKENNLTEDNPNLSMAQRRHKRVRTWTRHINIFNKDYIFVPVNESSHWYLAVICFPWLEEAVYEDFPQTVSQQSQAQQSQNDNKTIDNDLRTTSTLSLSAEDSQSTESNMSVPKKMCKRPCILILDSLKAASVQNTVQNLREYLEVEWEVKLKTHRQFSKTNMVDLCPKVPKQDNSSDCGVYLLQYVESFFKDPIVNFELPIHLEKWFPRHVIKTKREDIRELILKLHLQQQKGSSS
It is filed as functional.

Assay [9] deals with A-375. As to the kind of experiment: MITF: Counter assay: A375 proliferation Measured in Cell-Based System Using Plate Reader - 2084-03_Inhibitor_Dose_DryPowder_Activity. [Related pubchem assays (depositor defined):AID488944]. Particulars: Homo sapiens. The format is functional.
Another assay has as its target T4, Caspase-3 (Homo sapiens, UniProt P42574).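 Also: Dose-response selectivity test against caspase-3 for candidate inhibitors of sentrin-specific proteases (SENPs).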
T4 sequence (P42574 whole entry): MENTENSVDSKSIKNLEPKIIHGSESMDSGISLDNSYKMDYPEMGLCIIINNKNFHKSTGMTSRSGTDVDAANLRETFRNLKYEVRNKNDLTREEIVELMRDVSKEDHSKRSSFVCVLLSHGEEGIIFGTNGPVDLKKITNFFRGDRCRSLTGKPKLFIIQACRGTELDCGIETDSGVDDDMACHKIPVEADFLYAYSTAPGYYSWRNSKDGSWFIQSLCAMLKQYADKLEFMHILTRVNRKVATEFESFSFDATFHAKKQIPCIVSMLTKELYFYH
It is filed as functional.

Assay [10] deals with A-375. Briefly: A375 melanoma cell viability reduction, dose response, counter-screen for MITF modulator project, cherry-pick samples, set 2 (AID 540335). The format is functional, cell-based. The settings on record: Homo sapiens. (In general: The purpose of a counterscreen is to sort out artefacts and off-target activity.)
The target in assay [11] is T5, Heat shock factor protein 1 (Mus musculus, UniProt P38532).
T5 sequence (P38532 whole entry): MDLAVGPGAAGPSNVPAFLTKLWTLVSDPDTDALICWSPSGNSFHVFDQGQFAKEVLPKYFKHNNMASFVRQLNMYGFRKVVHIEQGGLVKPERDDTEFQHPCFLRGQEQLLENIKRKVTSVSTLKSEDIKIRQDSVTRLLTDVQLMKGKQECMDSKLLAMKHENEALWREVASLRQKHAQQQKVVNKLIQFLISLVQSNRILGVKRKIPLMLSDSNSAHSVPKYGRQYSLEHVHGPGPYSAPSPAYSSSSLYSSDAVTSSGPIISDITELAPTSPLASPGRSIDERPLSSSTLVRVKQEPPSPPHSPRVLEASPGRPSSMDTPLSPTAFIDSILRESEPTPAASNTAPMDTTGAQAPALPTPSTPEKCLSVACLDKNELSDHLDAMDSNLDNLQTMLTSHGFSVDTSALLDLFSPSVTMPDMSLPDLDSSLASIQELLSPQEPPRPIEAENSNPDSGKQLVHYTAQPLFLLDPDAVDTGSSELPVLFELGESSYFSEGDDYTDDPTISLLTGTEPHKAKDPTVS
As to the kind of experiment: HSF1 potentiators in luciferase reporter cells, confirmation, cell-based, NIH3T3, luminescence, dose retest (AID 435004).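 Also: stress induced by proteasome inhibitor MG132 added 30 min after compound; luciferase reporter driven by HSF1 response element in NIH3T3 cells; actives raise luminescence as potentiators of the MG132 stress response.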 It is filed as functional. (In a reporter assay the amount or activity of a reporter protein is the signal.)

Assay [12] concerns the target T6, Short transient receptor potential channel 4 (Mus musculus, UniProt Q9QUQ5).
T6 sequence (Q9QUQ5 whole entry): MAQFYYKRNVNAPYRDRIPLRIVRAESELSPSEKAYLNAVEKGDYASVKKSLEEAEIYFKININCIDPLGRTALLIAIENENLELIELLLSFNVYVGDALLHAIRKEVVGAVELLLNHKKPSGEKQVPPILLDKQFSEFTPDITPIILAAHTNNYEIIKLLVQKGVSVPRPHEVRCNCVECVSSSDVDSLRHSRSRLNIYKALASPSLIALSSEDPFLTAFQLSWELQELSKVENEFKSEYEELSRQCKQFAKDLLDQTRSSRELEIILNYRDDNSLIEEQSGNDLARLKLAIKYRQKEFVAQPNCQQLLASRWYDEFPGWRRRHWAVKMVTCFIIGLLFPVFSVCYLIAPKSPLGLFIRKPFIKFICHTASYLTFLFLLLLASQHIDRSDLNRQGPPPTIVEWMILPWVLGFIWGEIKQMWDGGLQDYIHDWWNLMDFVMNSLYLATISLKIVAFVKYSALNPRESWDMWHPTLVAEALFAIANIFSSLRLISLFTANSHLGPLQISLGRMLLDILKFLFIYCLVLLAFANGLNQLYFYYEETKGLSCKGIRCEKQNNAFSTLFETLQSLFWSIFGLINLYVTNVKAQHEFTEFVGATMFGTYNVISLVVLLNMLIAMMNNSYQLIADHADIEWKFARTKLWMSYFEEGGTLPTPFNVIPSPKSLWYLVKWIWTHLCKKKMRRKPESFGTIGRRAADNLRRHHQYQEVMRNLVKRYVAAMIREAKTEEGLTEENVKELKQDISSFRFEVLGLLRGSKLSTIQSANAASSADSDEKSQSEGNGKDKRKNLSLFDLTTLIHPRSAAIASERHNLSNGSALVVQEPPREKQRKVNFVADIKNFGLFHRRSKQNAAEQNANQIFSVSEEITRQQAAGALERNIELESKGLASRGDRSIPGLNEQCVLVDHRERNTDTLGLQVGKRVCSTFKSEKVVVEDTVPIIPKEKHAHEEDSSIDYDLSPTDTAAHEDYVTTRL
Briefly: SAR Analysis for the identification of selective inhibits of the transient receptor potential cation channel C4 (TRPC4): Automated Electrophysiology. [Related pubchem assays (depositor defined):AID2256]. It is filed as functional.

Assay [13] concerns the target T6, Short transient receptor potential channel 4. As to the kind of experiment: mouse TRPC4 channel inhibitors, dose response, cell-based, HEK293 TRPC4/mu-opioid, Fluo-4 calcium (AID 434942).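 Also: potency of inhibitors blocking the TRPC4 calcium response.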 It is filed as functional.
A further assay deals with NIH3T3. Briefly: cytotoxicity in NIH-3T3 fibroblasts, dose response, cytotoxicity control for antifungal drug resistance project, cell-based, Alamar Blue, fluconazole, dry powder (AID 488809). The format is functional. The settings on record: Mus musculus. (Resazurin is reduced to fluorescent resorufin, in cell work by metabolically active cells.)
The subject of assay [14] is Escherichia coli. As to the kind of experiment: microbe, parasite or virus in culture.
Assay [15] concerns the target Heat shock protein HSP 90-alpha (Homo sapiens, UniProt P07900). The format is functional, organism-based.
Assay [16] has as its system Escherichia coli. Briefly: microbe, parasite or virus in culture. This is another data set of the same source.
A further assay addresses Large T antigen (Simian virus 40, UniProt P03070). The format is functional, Betapolyomavirus macacae.

Calls of active or inactive are those of the source.

FAD-linked sulfhydryl oxidase ALR, sequence (P55789 whole entry): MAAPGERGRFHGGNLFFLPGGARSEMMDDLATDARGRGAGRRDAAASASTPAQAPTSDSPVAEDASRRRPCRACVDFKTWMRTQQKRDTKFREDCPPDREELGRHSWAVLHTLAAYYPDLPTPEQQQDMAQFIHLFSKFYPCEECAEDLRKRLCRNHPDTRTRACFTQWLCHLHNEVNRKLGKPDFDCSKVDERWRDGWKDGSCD
Large T antigen, sequence (P03070 whole entry): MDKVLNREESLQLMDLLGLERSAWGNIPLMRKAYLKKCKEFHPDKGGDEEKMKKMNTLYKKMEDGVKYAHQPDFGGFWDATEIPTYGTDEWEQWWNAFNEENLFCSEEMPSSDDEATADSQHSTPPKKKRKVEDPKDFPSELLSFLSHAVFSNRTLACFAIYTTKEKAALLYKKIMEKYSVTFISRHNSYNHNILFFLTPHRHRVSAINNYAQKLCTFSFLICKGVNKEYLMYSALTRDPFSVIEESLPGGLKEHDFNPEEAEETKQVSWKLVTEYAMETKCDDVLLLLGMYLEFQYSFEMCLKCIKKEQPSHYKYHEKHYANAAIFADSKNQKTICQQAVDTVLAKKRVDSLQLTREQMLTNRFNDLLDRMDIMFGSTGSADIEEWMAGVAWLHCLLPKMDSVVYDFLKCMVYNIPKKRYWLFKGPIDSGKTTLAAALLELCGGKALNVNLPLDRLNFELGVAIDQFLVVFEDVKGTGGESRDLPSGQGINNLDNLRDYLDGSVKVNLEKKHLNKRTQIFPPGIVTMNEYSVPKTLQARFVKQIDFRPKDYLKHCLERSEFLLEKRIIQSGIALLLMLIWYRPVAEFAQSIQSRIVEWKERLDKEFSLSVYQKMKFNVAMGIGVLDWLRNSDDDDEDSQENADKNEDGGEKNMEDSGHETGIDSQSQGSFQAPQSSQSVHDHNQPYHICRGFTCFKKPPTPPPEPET

The term AC50 denotes the midpoint of the concentration-response curve, whichever way the signal moves. By EC50 is commonly meant the concentration at which the effect is half-maximal. On to `CC(=O)Nc1ccc(SCc2ncc(-c3ccccc3)o2)cc1`, for which the AC50 in assay [1] is 0.44 µM (active); in assay [2], 0.429 µM (active); in [4] it was 4.26 µM (active). The 50% effective concentration (EC50) is 11.2 µM (active) in the assay with H4, 34.3 µM (active) in assay [3] and 0.237 µM (active) in [5].
Usually IC50 stands for the point on the concentration scale where inhibition reaches its midpoint. As to `CCOc1ccc2nc(NC(=O)Cc3cccs3)sc2c1`, the concentration for half-maximal inhibition (IC50) was 16.2 µM (active) in [6], 33.2 µM (active) in [7], 7.38 µM (active) in assay [8] and 22.9 µM (active) at Caspase-3. For the same compound, the half-maximal activity concentration (AC50) with A-375 [9] and in the assay on A-375 [10] was > 35 µM (active) in each case.
Consider `COc1ccc2c(C)cc(N3CCCCCC3)nc2c1`, for which the results for the EC50 in assay [11] and in [13] were > 260 µM (inactive) and 0.531 µM (active), respectively. For the same compound, in assay [12], the IC50 was 2.38 µM (active).
Consider `O=C(Cn1nc(-c2ccccc2)c2ccccc21)NCc1ccc(Cl)cc1`, for which the concentration at half-maximal activity (AC50) in the assay with NIH3T3 was 131 µM (active).
On to `[O-][n+]1ccccc1S` [PYRITHIONE], for which the half-maximal activity concentration (AC50) was 0.432 µM (active) in [1], 9.47 µM (active) in the assay on Escherichia coli [14], 1.01 µM (active) in assay [15] and 9.06 µM (active) in the assay on Escherichia coli [16]. Also, the concentration for half-maximal inhibition (IC50) on Large T antigen was 30.3 µM (active).
